One series relates to Caco-2 cell line. Description: Caco 2 model (transport through Caco-2 monolayers, absorbed fraction). Format: in vitro ADME. The conditions noted are these: apical to basolateral, pH 7.8, 37° C., test concentration 1 mM / 100 μM, from Papp via sigmoidal calibration curve. The procedure:
The Caco-2 cell line was acquired from the American Type Culture Collection (ATCC) and maintained in Dulbecco's Modified Eagle medium (high glucose content), supplemented with nonessential amino acids, L-glutamine, penicillin/streptomycin, and 10% strength fetal calf serum. The Caco-2 cell line was then kept in an incubator under a 10% strength CO2 atmosphere at 95% strength relative humidity and 37° C. The cells were grown in cell culture flasks (175 cm^2). For the transport investigations, the Caco-2 cells were inoculated into polycarbonate cell culture inserts (costar Transwells®, pore size: 3 μm, area: 4.71 cm^2) at a cell density of 6.5×10^4 cells/cm^2 and incubated in six-well culture plates with a change of medium after 4 and 8 days and then every second day thereafter. 21 to 25 day-old monolayers were used for the experiments.
In each test series, a 21 day-old monolayer was tested for its properties with ^3H-dextran as a permeability marker. The value of the transfer rate (cumulative) had to be in the range of 2% after 120 min.
After eliminating the growth medium from the apical and the basolateral side, the monolayers were rinsed with the transport buffer (Hank's balanced salt solution, pH 7.8; containing 2.8 g/l glucose).The cells were then equilibrated for 15 min at 37° C. under a 10% strength C02 atmosphere. The HBSS buffer was then removed. The test compounds were dissolved in a mixture of HBSS buffer and DMSO and added to the apical buffer such that a 1% strength (v/v) DMSO solution resulted. The test concentration in the first experiment was 1 mM, and 100 μM in the second. The experiments were carried out at 37° C. and started by the addition of 1.5 ml of test solution to the donor side (apical). Transport buffer without compound was added to the recipient side (basolateral, 2.5 ml). At various points in time, samples were taken from the basolateral side (1 ml) and replaced by fresh buffer solution at 37° C. […]
The compounds were analyzed by means of HPLC.
The apparent permeability coefficient (Papp) was calculated by means of the following equation: [formula]
wherein dc/dt is the flow through the monolayer (μg of compound/ml x s), V is the liquid volume in the collection chamber (ml), A is the surface area size of the monolayer (cm^2) and c0 is the initial concentration (μg of compound/ml) in the donor chamber. The flow through the monolayer was calculated from the cumulative basolateral concentration at the appropriate point in time with the aid of the initially linear data curve (linear up to 60 min). The respective determinations were made in triplicate, such that the calculated Papp value represents the mean of three measurements. […]

A further series concerns the target T1, Rat NHE3 (Rattus norvegicus, UniProt P26433).
T1 construct: expressed in transfected cells; host or cells: LAP1 (NHE-deficient cell line), stably transfected with pMAMneo plasmid
Description: NHE activity measurement (pHi recovery after acid load, transfected LAP1 cells). It counts as cell-based. The conditions noted are these: stably transfected LAP1 cells, pH recovery recorded for 3 minutes, BCECF. The text has this: In the context of our studies, stably transfected cell lines were produced that in each case expressed one of the following NHE subtypes: Human NHE1 (Sardet et al. Cell 56:271-280 (1989)), rabbit NHE2 (Tse et al.; J. Biol. Chem. 268:11917-11924 (1993)), human NHE3 (Brant et al. Am. J. Physiol. 269 (Cell Physiol. 38) C198-C206 (1995)), or rat NHE3 (Orlowski et al.; J. Biol. Chem. 267:9331-9339 (1992)).
The cDNA clones of the respective NHE subtypes obtained by Prof. Pouyssegur were, after addition of suitable linker sequences, cloned into the expression plasmid pMAMneo (obtainable, for example, via CLONTECH, Heidelberg) such that the recognition sequence for the restriction endonuclease Nhel of the plasmid was approximately 20-100 Basepairs before the start codon of the respective NHE subtype and that the total coding sequence was present in the construct. In the case of the human NHE3 obtained from human kidney mRNA by means of RT-PCR, the RT-PCR primers were selected such that the cDNA band obtained had cleavage sites suitable for pMAMneo at its ends.
Using the “calcium phosphate method” (described in chapter 9.1 of “Current Protocols in Molecular Biology”), the NHE-deficient cell line LAP1 (Franchi et al.; Proc. Natl. Acad. Sci. USA 83:9388-9392 (1986)) was transfected with the plasmids that received the respective coding sequences of the NHE subtypes. […]
In this test, the recovery of the intracellular pH (pHi) after an acidification, which in the case of functional NHE occurs even under bicarbonate-free conditions, was determined. For this, the pHi was determined using the pH-sensitive fluorescent dye BCECF (Calbiochem, where the precursor BCECF-AM is employed). […] The BCECF fluorescence was determined in a “Ratio Fluorescence Spectrometer” (Photon Technology International, South Brunswick, N.J., USA) at excitation wavelengths of 505 and 440 nm and an emission wavelength of 535 nm and converted into the pHi by means of calibration curves. […]

For another series, the system named is NHE3. The conditions noted are these: NHE3 inhibitor; cited from earlier work.

Counter-ions that a name gives are not always drawn. Bounds are passed on as bounds.

T1 sequence (P26433 29-831): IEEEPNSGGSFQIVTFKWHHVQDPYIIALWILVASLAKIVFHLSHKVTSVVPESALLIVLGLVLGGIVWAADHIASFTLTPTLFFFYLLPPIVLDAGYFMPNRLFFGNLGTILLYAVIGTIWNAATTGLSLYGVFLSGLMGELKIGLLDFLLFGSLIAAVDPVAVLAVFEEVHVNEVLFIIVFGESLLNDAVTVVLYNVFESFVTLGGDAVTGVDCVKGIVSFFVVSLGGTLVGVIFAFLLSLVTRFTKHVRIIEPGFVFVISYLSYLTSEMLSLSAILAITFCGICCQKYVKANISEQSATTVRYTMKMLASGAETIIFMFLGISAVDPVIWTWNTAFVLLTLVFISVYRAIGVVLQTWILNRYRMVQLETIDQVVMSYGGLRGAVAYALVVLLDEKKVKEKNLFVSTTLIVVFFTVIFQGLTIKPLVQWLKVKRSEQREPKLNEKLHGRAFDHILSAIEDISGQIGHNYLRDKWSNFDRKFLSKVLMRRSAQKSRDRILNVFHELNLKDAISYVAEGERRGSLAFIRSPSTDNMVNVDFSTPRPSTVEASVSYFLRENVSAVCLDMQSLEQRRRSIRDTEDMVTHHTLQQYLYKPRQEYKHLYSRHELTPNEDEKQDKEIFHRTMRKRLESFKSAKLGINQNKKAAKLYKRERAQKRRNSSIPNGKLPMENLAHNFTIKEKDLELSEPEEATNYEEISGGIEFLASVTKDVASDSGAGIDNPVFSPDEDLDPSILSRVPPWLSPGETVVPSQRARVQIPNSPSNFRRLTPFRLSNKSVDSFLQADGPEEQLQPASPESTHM

As a reminder, the melting point is the temperature of the solid-liquid transition. Compound `c1cncc(CN[C@@H]2C[C@@H]3C[C@H]2[C@@H]2CCCC[C@H]32)c1` (as salt: hydrochloride) [Example 8, exo/endo-(decahydro-1,4-methanonaphthalen-2-yl)-pyridin-3-ylmethyl-amine Hydrochloride] returned a melting point of 283 to 285 °C. What is called IC50 is the concentration needed to halve the response being measured. `c1cncc(CN[C@@H]2C[C@@H]3C[C@H]2[C@@H]2CCC[C@H]32)c1` (racemic) [Example 1, (rac)-exo/endo-(octahydro-4,7-methanoinden-5-yl)pyridin-3-ylmethylamine Hydrochloride]: the Absorbed fraction with Caco-2 cell line is recorded as 100%. This compound gave an IC50 against Rat NHE3 of 340 nM. In turn, `c1cnc(CN[C@@H]2C[C@@H]3C[C@H]2[C@@H]2CCC[C@H]32)cn1` (racemic) [Example 18] displayed an Absorbed fraction in the series on Caco-2 cell line of 100%. Compound `c1cncc(CN[C@@H]2C[C@@H]3C[C@H]2[C@H]2CCC[C@@H]32)c1` (relative stereo) [Example 6, exo/exo-(octahydro-4,7-methanoinden-5-yl)-pyridin-3-ylmethylamine Hydrochloride] had an IC50 on Rat NHE3 of 2100 nM. On the same count and under the same terms, in the case of `c1csc(CN[C@@H]2C[C@@H]3C[C@H]2[C@@H]2CCC[C@H]32)c1` [Example 5, exo/endo-(octahydro-4,7-methanoinden-5-yl)-thiophen-2-ylmethylamine Hydrochloride] it was 2900 nM. With `C/C(=C\c1cccc(/C=C(\C)C(=O)N=C(N)N)c1)C(=O)N=C(N)N.Cl.Cl` [S 2120, reference compound], the Absorbed fraction in the series on Caco-2 cell line is recorded as under 1%.

For `C/C(=C\c1cc(C)ccc1/C=C(\C)C(=O)NC(=N)N)C(=O)N=C(N)N` [S 3226, reference compound], the Absorbed fraction with Caco-2 cell line is under 5%. With `CC(C)[C@@H](CC[C@@H](C)[C@H]1CC[C@H]2[C@@H]3[C@H](O)C[C@H]4C[C@@H](NCCCNCCCCN)CC[C@]4(C)[C@H]3CC[C@]12C)OS(=O)(=O)O` [squalamine], in the series with NHE3, the “time to reach maximum potency” value was “only after approximately one hour”.

(Values after patent US6737423B2, “Substituted heterocyclo-norbornylamino derivatives, processes for their preparation, their use as medicaments or diagnostics, and medicaments comprising them” (Aventis Pharma Deutschland GmbH, priority 2000, dated 2004).)
